# Assay results as given in patent US8940310B2, “Methods of treatment using TLR7 and/or TLR9 inhibitors” (Dynavax Technologies Corporation, priority 2010, dated 2015).
# Marks after values point to notes of the source that are not given here.
# Experiments:
# [1] = Monomer and tetramer formation of IRPs, size-exclusion HPLC; type: physicochemical; details: 100 mg/mL in PBS and 0.5M KCl, room temperature, five weeks
# Description: Solutions were prepared of the by mixing 100 mg/mL of the IRP sequences in PBS and 0.5M KCl and storing at room temperature for three to five weeks. The solutions were subsequently analyzed by size-exclusion HPLC.
# [2] = High dosages of IRPs in rats (weight, deaths, histology); type: in vivo, Sprague Dawley rats; details: for Heart: Cell Vacuolation, number of animals / Heart: Hemorrhage, number of animals / Heart: Mononuclear Cell Infiltration, number of animals / Heart: Necrosis, number of animals / Heart: No significant changes, number of animals / Liver: Liver changes, number of animals / Liver: Mixed cell infiltration, number of animals / Liver: Necrosis, number of animals / Liver: No significant changes, number of animals / Liver: Vacuolation, number of animals / Right Kidney: Hydronephrosis, number of animals / Right Kidney: Mineralization, number of animals / Right Kidney: Necrosis, number of animals / Right Kidney: No significant changes, number of animals / Right Kidney: Tubular basophilia, number of animals / Right Kidney: Tubular changes, number of animals: 6 animals
# Description: To test the activity of IRPs at high dosages in rats, IRPs (SEQ ID NO:42 and SEQ ID NO:109) or a control (PBS) were subcutaneously administered to 8-9 weeks old, […], 3, 6, and 9 (n=6 per group). Rats were weighed prior to administration and on days 1, 3, 4, 6, 7, and 9. Organs were harvested at the end of the study, and organ weights and tissues levels of the oligonucleotides were determined. In addition, histolocial evaluation of the liver, kidney, and heart was performed.
# Rats were weighed prior to administration and on days 1, 3, 6, 7, and 9. Organs were harvested at the end of the study, and organ weights and tissues levels of the oligonucleotides were determined. In addition, histological evaluation of the liver, kidney, and heart was performed.
# [3] = High dosages of IRPs in mice (weight, histology); type: in vivo, BALB/c mice; details: for Liver: Liver changes, number of animals / Liver: Mixed cell infiltration, number of animals / Liver: No significan changes, number of animals / Right Kidney: No significant changes, number of animals / Right Kidney: Tubular basophilia, number of animals / Right Kidney: Tubular changes, number of animals: 6 animals; for Heart: No significant changes, number of animals: tissue missing in two animals
# Description: To test the activity of IRPs at high dosages in mice, IRPs or a control (saline) were subcutaneously administered to BALB/c mice at a dosage of 4 mg/kg, 20 mg/kg, 50 mg/kg, or 100 mg/kg on days 1, 4, 7, and 10 (n=5 per group). Mice were weighed prior to administration and on days 2, 4, 7, 9, and 11. Serum cytokines were assayed at two hours post the first and third injections and 24 hours post the fourth injection. Organs were harvested at the end of the study, and organ weights and tissues levels of the oligonucleotides were determined. In addition, histological evaluation of the liver, kidney, and heart was performed.
# Mice were weighed prior to administration and on days 1, 3, 4, 6, 7, and 9. Organs were harvested at the end of the study, and organ weights and tissues levels of the oligonucleotides were determined. In addition, histological evaluation of the liver, kidney, and heart was performed.
# human B-cells = experiment: Human B-cells cultured in the presence of IRPs, IL-6
# Description: For the human B-cell assay, B-cells were purified from total blood cells obtained from healthy donors using magnetic beads (CD19 positive). Cells were resuspended in fresh medium (RPMI 1640 with 10% fetal calf serum, 50 units/mL penicillin, 50 μg/mL streptomycin, and 2 mM glutamine). At 48 hours, supernatants were collected and cytokine levels, IL-6, were measured using immunoassay.
# To further investigate the effect of IRPs on B-cell stimulatory activity, a wide variety of IRP sequences were assayed for IL-6, along with positive and negative controls. The experiment was performed as described in Example 1 using doses of IRP of either 4.0 μM or 2.0 μM. The positive control was an immunostimulatory sequence (ISS) with SEQ ID NO:157. […] The results are presented as the average normalized IL-6 response over several experiments.
# [4] = rat, 10 mg/kg, 0 = no change to 4 = severe
# [5] = rat, 90 mg/kg, 0 = no change to 4 = severe
# [6] = 50 mg/kg, 0 = no change to 4 = severe
# [7] = 100 mg/kg, 0 = no change to 4 = severe
substance,measurement,setting,value
"5′-TGC TCC TGG AGI GGT TG-HEG-T-3′ (DNA TGCTCCTGGAGNGGTTGNT; inosine, internal HEG spacer, chemistry not fully specified) [SEQ ID NO:143]",fraction in monomer form,[1],100%
same,toxicity profile,[2]; rat histology,favorable toxicity profiles
same,"Heart: Cell Vacuolation, number of animals","[2]; rat, 10 mg/kg",0
same,"Heart: Hemorrhage, number of animals","[2]; rat, 10 mg/kg",0
same,"Heart: Mononuclear Cell Infiltration, number of animals","[2]; rat, 10 mg/kg",0
same,"Heart: Necrosis, number of animals","[2]; rat, 10 mg/kg",0
same,"Heart: No significant changes, number of animals","[2]; rat, 10 mg/kg",6
same,"Liver: Liver changes, number of animals","[2]; rat, 10 mg/kg",0
same,"Liver: Mixed cell infiltration, number of animals","[2]; rat, 10 mg/kg",5
same,"Liver: Necrosis, number of animals","[2]; rat, 10 mg/kg",0
same,"Liver: No significant changes, number of animals","[2]; rat, 10 mg/kg",1
same,"Liver: Vacuolation, number of animals","[2]; rat, 10 mg/kg",2
same,"Right Kidney: Hydronephrosis, number of animals","[2]; rat, 10 mg/kg",0
same,"Right Kidney: Mineralization, number of animals","[2]; rat, 10 mg/kg",1
same,"Right Kidney: Necrosis, number of animals","[2]; rat, 10 mg/kg",0
same,"Right Kidney: No significant changes, number of animals","[2]; rat, 10 mg/kg",0
same,"Right Kidney: Tubular basophilia, number of animals","[2]; rat, 10 mg/kg",0
same,"Right Kidney: Tubular changes, number of animals","[2]; rat, 10 mg/kg",6
same,"Liver: Mixed cell infiltration, mean severity score",[2]; [4],1.4
same,"Liver: Vacuolation, mean severity score",[2]; [4],1.5
same,"Right Kidney: Mineralization, mean severity score",[2]; [4],2.0
same,"Right Kidney: Tubular changes, mean severity score",[2]; [4],1.1
same,Heart: cellular vacuolation,"[2]; rat, 90 mg/kg",present in some animals
same,Kidney: tubular basophilia,"[2]; rat, 90 mg/kg",occurred
same,Liver: hepatocellular cytoplasmic vacuolation,"[2]; rat, 90 mg/kg",hepatocellular cytoplasmic vacuolation
same,"Heart: Cell Vacuolation, number of animals","[2]; rat, 90 mg/kg",5
same,"Heart: Hemorrhage, number of animals","[2]; rat, 90 mg/kg",0
same,"Heart: Mononuclear Cell Infiltration, number of animals","[2]; rat, 90 mg/kg",0
same,"Heart: Necrosis, number of animals","[2]; rat, 90 mg/kg",0
same,"Heart: No significant changes, number of animals","[2]; rat, 90 mg/kg",1
same,"Liver: Liver changes, number of animals","[2]; rat, 90 mg/kg",6
same,"Liver: Mixed cell infiltration, number of animals","[2]; rat, 90 mg/kg",1
same,"Liver: Necrosis, number of animals","[2]; rat, 90 mg/kg",0
same,"Liver: No significant changes, number of animals","[2]; rat, 90 mg/kg",0
same,"Liver: Vacuolation, number of animals","[2]; rat, 90 mg/kg",5
same,"Right Kidney: Hydronephrosis, number of animals","[2]; rat, 90 mg/kg",0
same,"Right Kidney: Mineralization, number of animals","[2]; rat, 90 mg/kg",2
same,"Right Kidney: Necrosis, number of animals","[2]; rat, 90 mg/kg",0
same,"Right Kidney: No significant changes, number of animals","[2]; rat, 90 mg/kg",0
same,"Right Kidney: Tubular basophilia, number of animals","[2]; rat, 90 mg/kg",3
same,"Right Kidney: Tubular changes, number of animals","[2]; rat, 90 mg/kg",6
same,"Heart: Cell Vacuolation, mean severity score",[2]; [5],1.0
same,"Liver: Liver changes, mean severity score",[2]; [5],2.1
same,"Liver: Mixed cell infiltration, mean severity score",[2]; [5],1.0
same,"Liver: Vacuolation, mean severity score",[2]; [5],2.7
same,"Right Kidney: Mineralization, mean severity score",[2]; [5],2.0
same,"Right Kidney: Tubular basophilia, mean severity score",[2]; [5],1.0
same,"Right Kidney: Tubular changes, mean severity score",[2]; [5],1.8
same,"Heart: Chronic inflammation, number of animals",[3]; 50 mg/kg,2
same,"Heart: Mineralization, number of animals",[3]; 50 mg/kg,1
same,"Heart: Chronic inflammation, mean severity score",[3]; [6],2.0
same,"Heart: Mineralization, mean severity score",[3]; [6],4.0
same,"Liver: Liver changes, mean severity score",[3]; [6],2.0
same,"Liver: Mixed cell infiltration, mean severity score",[3]; [6],3.0
same,"Right Kidney: Tubular basophilia, mean severity score",[3]; [6],2.0
same,"Liver: Liver changes, number of animals",[3]; 50 mg/kg,6
same,"Liver: Mixed cell infiltration, number of animals",[3]; 50 mg/kg,6
same,"Liver: No significan changes, number of animals",[3]; 50 mg/kg,0
same,"Right Kidney: No significant changes, number of animals",[3]; 50 mg/kg,5
same,"Right Kidney: Tubular basophilia, number of animals",[3]; 50 mg/kg,1
same,"Right Kidney: Tubular changes, number of animals",[3]; 50 mg/kg,0
same,"Heart: No significant changes, number of animals",[3]; 50 mg/kg,1**
same,"Heart: Chronic inflammation, number of animals",[3]; 100 mg/kg,0
same,"Heart: Mineralization, number of animals",[3]; 100 mg/kg,1
same,"Heart: Mineralization, mean severity score",[3]; [7],3.0
same,"Liver: Mixed cell infiltration, mean severity score",[3]; [7],1.0
same,"Liver: Liver changes, number of animals",[3]; 100 mg/kg,0
same,"Liver: Mixed cell infiltration, number of animals",[3]; 100 mg/kg,1
same,"Liver: No significan changes, number of animals",[3]; 100 mg/kg,5
same,"Right Kidney: No significant changes, number of animals",[3]; 100 mg/kg,6
same,"Right Kidney: Tubular basophilia, number of animals",[3]; 100 mg/kg,0
same,"Right Kidney: Tubular changes, number of animals",[3]; 100 mg/kg,0
same,"Heart: No significant changes, number of animals",[3]; 100 mg/kg,3**
same,Normalized IL-6 Response (Percentage of Positive Control),"human B-cells; Experiment # 3, Max Conc 4.0 uM",5%
same,B-cell stimulatory activity,"human B-cells; FIG. 1C, percent IL-6 from CpG-ISS",low B-cell stimulatory activity
